Assay type in all cases: in vivo
For test [1], the system named is ducksalad (Heteranthera limosa). Kind of test: Test B flooded paddy test. As to conditions: 250 g ai/ha, Flood; visual rating on scale of 0 to 100 where 0 is no effect and 100 is complete control; 13 to 15 d after treatment. The gist of the method:
(§1)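 Plants at the 2-leaf stage were flooded to 3 cm above soil, and test compounds were applied directly into the paddy water, which was held at that depth throughout. After 13 to 15 d in a greenhouse, injury was rated visually against untreated controls on a 0–100 scale (0 no effect, 100 complete control).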

The subject of test [2] is sedge, umbrella (small-flower umbrella sedge, Cyperus difformis). The test is described as follows: Test B flooded paddy test. The following applies: 250 g ai/ha, Flood; visual rating on scale of 0 to 100 where 0 is no effect and 100 is complete control; 13 to 15 d after treatment. The gist of the method: as §1
For test [3], the system named is rice (Oryza sativa). Kind of test: Test B flooded paddy test. The following applies: 250 g ai/ha, Flood; visual rating on scale of 0 to 100 where 0 is no effect and 100 is complete control; 13 to 15 d after treatment. A digest of the protocol:
as §1

The test system of test [4] is barnyardgrass (Echinochloa crus-galli). Kind of test: Test B flooded paddy test. As to conditions: 250 g ai/ha, Flood; visual rating on scale of 0 to 100 where 0 is no effect and 100 is complete control; 13 to 15 d after treatment. The gist of the method:
as §1

Test [5] concerns foxtail, giant (giant foxtail, Setaria faberii). The test is described as follows: Test A greenhouse herbicide test, pre- and postemergence. A digest of the protocol: (§2)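 Seeds sown in loam–sand blend got a preemergence directed soil spray of compound in non-phytotoxic solvent with surfactant. Postemergence treatment was given at 2–10 cm, one- to two-leaf stage. After ~10 d in greenhouse, injury was rated visually vs untreated controls, 0 (no effect) to 100 (complete control).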

The test system of test [6] is wheat (Triticum aestivum). The test is described as above. As to conditions: Postemergence; for Wheat plant response rating: 0 to 100 scale, 0 is no effect, 100 is complete control. The gist of the method:
as §2

Test [7] relates to ryegrass, Italian (Italian ryegrass, Lolium multiflorum). Described as above. A digest of the protocol:
as §2

In test [8] the test system is pigweed (Amaranthus retroflexus). Described as above. The gist of the method: as §2
The subject of test [9] is corn (Zea mays). Described as above. As to conditions: Postemergence; for Corn plant response rating: 0 to 100 scale, 0 is no effect, 100 is complete control. A digest of the protocol: as §2
Test [10] deals with ragweed (common ragweed, Ambrosia elatior). Described as above. The gist of the method: as §2
The mark [11] stands for this setting: Postemergence, 125 g ai/ha, 0 to 100 scale where 0 is no effect and 100 is complete control.
Where [12] appears, read: Postemergence, 500 g ai/ha, 0 to 100 scale, 0 is no effect, 100 is complete control.
Setting [13] is: Preemergence, 125 g ai/ha, 0 to 100 scale where 0 is no effect and 100 is complete control.
[14] abbreviates: Preemergence, 500 g ai/ha, 0 to 100 scale, 0 no effect, 100 complete control.
The mark [15] stands for this setting: 125 g ai/ha, 0 to 100 scale where 0 is no effect and 100 is complete control.
Where [16] appears, read: Preemergence, 500 g ai/ha, 0 to 100 scale where 0 is no effect and 100 is complete control.
The mark [17] stands for this setting: Postemergence, 500 g ai/ha, visual rating after approx. 10 d, 0 to 100 scale (0 no effect, 100 complete control).
Where [18] appears, read: 500 g ai/ha, visual rating after approx. 10 d, 0 to 100 scale (0 no effect, 100 complete control).

Consider `CCc1sc2ccc(C)cc2c1-c1c(O)c(C)nn(C)c1=O` [Compound 47], for which the “Plant response rating, Ducksalad” value in [1] was found to be 0. The “Plant response rating, Sedge, Umbrella” value in test [2] is on record as 0. Besides, the “Plant response rating, Rice” value in test [3] is on record as 0. The “Plant response rating, Barnyardgrass” value in [4] is 0. The “Plant response rating, Foxtail, Giant” value in test [5] (setting [11]) and in [5] (setting [14]) was 80 each time. For the same compound, the figures for the “Foxtail, Giant plant response rating” value in test [5] (setting [12]) and in test [5] (setting [13]) were 80 and 70, respectively. Further, in [6] (setting [15]), the “Plant response rating, Wheat” value came out at 0. In test [6] (500 g ai/ha), the “Wheat plant response rating” value is given as 0. The “Plant response rating, Ryegrass, Italian” value in test [7] (setting [11]) came to 70; in test [7] (setting [14]), 90. The results for the “Ryegrass, Italian plant response rating” value in test [7] (setting [12]) and in test [7] (setting [13]) were 80 and 60, respectively. The “Plant response rating, Pigweed” value in [8] (setting [11]) and in test [8] (setting [14]) was 100 each time. Besides, the figures for the “Pigweed plant response rating” value in test [8] (setting [12]) and in test [8] (setting [13]) were 100 and 70, respectively. Also, the “Plant response rating, Corn” value in test [9] (setting [15]) amounted to 0. Besides, the “Corn plant response rating” value in test [9] (500 g ai/ha) is 10. For the same compound, the “Plant response rating, Ragweed” value in [10] (setting [11]) is 100; in test [10] (setting [14]), 90. Also, the figures for the “Ragweed plant response rating” value in [10] (setting [12]) and in test [10] (setting [13]) were 100 and 80, respectively.

As to `Cc1nn(C)c(=O)c(-c2ccc(Br)c3ccccc23)c1O` [Compound 75], the “Plant response rating, Ducksalad” value in test [1] was found to be 0. Besides, the “Plant response rating, Sedge, Umbrella” value in [2] amounted to 0. Further, the “Plant response rating, Rice” value in test [3] came to 15. For the same compound, the “Plant response rating, Barnyardgrass” value in [4] turned out to be 0. Besides, the “Plant response rating, Foxtail, Giant” value is recorded as 50 in [5] (setting [11]) and 90 in test [5] (setting [16]). Besides, the “Foxtail, Giant plant response rating” value in [5] (setting [12]) and in [5] (setting [13]) was 50 in each case. In addition, the “Plant response rating, Wheat” value in test [6] (setting [15]) is recorded as 0. In addition, the “Wheat plant response rating” value in test [6] (500 g ai/ha) is recorded as 20. The “Plant response rating, Ryegrass, Italian” value in test [7] (setting [11]) amounted to 90; in test [7] (setting [16]), 100. Also, the “Ryegrass, Italian plant response rating” value in test [7] (setting [12]) and in [7] (setting [13]) was 100 throughout. For the same compound, the “Plant response rating, Pigweed” value in [8] (setting [11]) came to 30; in test [8] (setting [16]), 100. In addition, the results for the “Pigweed plant response rating” value in test [8] (setting [12]) and in test [8] (setting [13]) were 50 and 100, respectively. The “Plant response rating, Corn” value in test [9] (setting [15]) is listed as 0. Further, in [9] (500 g ai/ha), the “Corn plant response rating” value was 20. Besides, the “Plant response rating, Ragweed” value in test [10] (setting [11]) turned out to be 60; in [10] (setting [16]), 90. In addition, the “Ragweed plant response rating” value in test [10] (setting [12]) came to 90; in test [10] (setting [13]), 70.

On to `CC(=O)Oc1c(C)nn(C)c(=O)c1-c1c(C)cc(C)c2ccccc12` [Compound 99], for which, in [1], the “Plant response rating, Ducksalad” value is recorded as 0. Besides, the “Plant response rating, Sedge, Umbrella” value in test [2] is on record as 0. Moreover, the “Plant response rating, Rice” value in [3] is reported as 0. In addition, the “Plant response rating, Barnyardgrass” value in test [4] is listed as 0. In addition, the “Plant response rating, Foxtail, Giant” value is 40 in test [5] (setting [11]), 90 in test [5] (setting [17]) and 80 in test [5] (setting [16]). In test [5] (setting [13]), the “Foxtail, Giant plant response rating” value is 50. For the same compound, the “Plant response rating, Wheat” value in [6] (setting [15]) is recorded as 20; in test [6] (setting [18]) it was 30. Besides, the “Plant response rating, Ryegrass, Italian” value in [7] (setting [11]), in [7] (setting [17]) and in [7] (setting [16]) was 100 throughout. Further, the “Ryegrass, Italian plant response rating” value in test [7] (setting [13]) came to 100. For the same compound, the “Plant response rating, Pigweed” value stood at 70 in test [8] (setting [11]), 90 in test [8] (setting [17]) and 100 in test [8] (setting [16]). For the same compound, in [8] (setting [13]), the “Pigweed plant response rating” value is listed as 100. Also, the entries for the “Plant response rating, Corn” value in [9] (setting [15]) and in test [9] (setting [18]) were 20 and 40, respectively. The “Plant response rating, Ragweed” value in test [10] (setting [11]) amounted to 100; in [10] (setting [17]), 100; in test [10] (setting [16]) it was 80. The “Ragweed plant response rating” value in test [10] (setting [13]) was 80.

The record behind these values is patent US10597388B2, “Pyridazinone herbicides” (FMC CORPORATION, priority 2014, dated 2020).
